From patent publication US9040547B2, “Pyrrolopyrimidine and purine derivatives” (PFIZER INC., priority 2011, dated 2015)
Where a name gives a salt, the structure may show the parent alone.

What was measured:
Type in all cases: cell-based
[1] = test system: NIH3T3/EGFR_E746-A750_deletion+T790M; experiment: Cell proliferation assay (CellTiter-Glo), NIH3T3/EGFR_E746-A750_deletion+T790M; conditions: Mus musculus, NIH3T3, 120 h, 3T3 cell line, three to five days of compound treatment, read-out: 3T3 del_T790M IC50
Experimental: (§1) Cell proliferation was measured using the CellTiter-Glo® Luminescent Cell Viability Assay. The assay involves the addition of a single reagent (CellTiter-Glo® Reagent) directly to cells cultured in serum-supplemented medium. The assay uses this one-step addition to induce cell lysis and generate a luminescent signal proportional to the amount of ATP present which is directly proportional to the number of metabolically active cells present in culture. The following cell lines were evaluated in this assay: NIH3T3/EGFR_L858R, NIH3T3/EGFR_E746-A750_deletion, NIH3T3/EGFR L858R+T790M, NIH3T3/EGFR_E746-A750_deletion+T790M, PC-9, PC9-DRH, NCI-H1975, and NCI-H3255. NIH/3T3 parental cells, NCI-H1975, and NCI-H3255 were purchased from the American Type Culture Collection (Manassas, Va.), and PC-9 cells were obtained from Japan. All cells were cultured according to recommendations. NIH/3T3 cells were grown in DMEM (Invitrogen, Carlsbad, Calif.) supplemented with 10% newborn calf serum (Invitrogen), and NIH3T3/EGFR mutant cells were grown in complete media with 5 μg/mL puromycin (Invitrogen). PC-9, NCI-H1975, and NCI-H3255 were grown in RPMI (Invitrogen, Carlsbad, Calif.) supplemented with 10% FBS (Sigma, St Louis, Mo.), and PC9-DRH cells were grown in complete media with 2 uM PF-00299804. Plasmids (pLPCX) with various EGFR constructs were made by GenScript (Piscataway, N.J.), and stable pools of NIH/3T3 cells expressing these constructs were made at Pfizer La Jolla. PC9-DRH cells were generated at Pfizer La Jolla by exposing cells to increasing concentrations of PF-00299804. Cells were plated in complete culture media (3000-5000 cells/well, 50 μl/well) on the bottom of white clear-bottom tissue culture treated microtiter plates (#3610, Corning Inc, Corning, N.Y.) and allowed to adhere overnight at 37° C., 5% CO2. The following day, compound dilution plates were prepared in 96 well clear V-bottom 0.5 mL polypropylene block plates (#3956, Corning, Inc). All cell lines were not evaluated for each compound. Each compound evaluated was prepared as a DMSO stock solution (10 mM). Compounds were tested in duplicate on each plate, with an 11-point serial dilution curve (1:3 dilution). Compound treatment (50 μl) was added from the compound dilution plate to the cell plate. The highest compound concentration was 1 or 10 μM (final), with a 0.3% final DMSO (#D-5879, Sigma, St Louis, Mo.) concentration. Plates were then incubated at 37° C., 5% CO2. After three to five days of compound treatment, CellTiter-Glo® Reagent (#G7573, Promega, Madison, Wis.) was prepared in one of two ways. If thawing a frozen aliquot of CellTiter-Glo® Reagent, the aliquot was thawed and equilibrated to room temperature prior to use while keeping it protected from light. Alternatively, new bottles of CellTiter-Glo® Buffer and CellTiter-Glo® Substrate were thawed and equilibrated to room temperature prior to use. CellTiter-Glo® Buffer (100 mL) was transferred into the amber bottle containing CellTiter-Glo® Substrate to reconstitute the lyophilized enzyme/substrate mixture, forming the CellTiter-Glo® Reagent. The reconstituted reagent was mixed by gently inverting the contents to obtain a homogeneous solution, and went into solution easily in less than one minute. Any unused reconstituted CellTiter-Glo® Reagent was immediately aliquoted and frozen at −20° C., protected from light. Cell plates were equilibrated at room temperature for approximately 30 minutes. An equivolume amount of CellTiter-Glo® Reagent (100 μL) was added to each well. Plates were mixed for two minutes on an orbital shaker to induce cell lysis, and then allowed to incubate at room temperature for 10 minutes to stabilize the luminescent signal. Luminescence was recorded using the PerkinElmer EnVision Excite Multilabel Reader used for endpoint reading for Luminescence detection (Waltham, Mass.). Data were analyzed using a four-parameter fit in Microsoft Excel. […]

EGFR L858R = EGFR L858R (Homo sapiens, UniProt P00533, L858R); experiment: pEGFR Y1068 ELISA assay, NIH3T3/EGFR_L858R cells; conditions: 3T3 cell line, 2 hrs compound treatment; read-out: pEGFRY1068 ELISA3T3 L858R IC50;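 further: sandwich ELISA of phospho-EGFR Tyr1068 in lysates of stably transfected NIH/3T3 pools after 2 h compound exposure at 37 °C, 11-point threefold dilution series run in duplicate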
EGFR L858R, sequence (P00533 25-1210 L858R): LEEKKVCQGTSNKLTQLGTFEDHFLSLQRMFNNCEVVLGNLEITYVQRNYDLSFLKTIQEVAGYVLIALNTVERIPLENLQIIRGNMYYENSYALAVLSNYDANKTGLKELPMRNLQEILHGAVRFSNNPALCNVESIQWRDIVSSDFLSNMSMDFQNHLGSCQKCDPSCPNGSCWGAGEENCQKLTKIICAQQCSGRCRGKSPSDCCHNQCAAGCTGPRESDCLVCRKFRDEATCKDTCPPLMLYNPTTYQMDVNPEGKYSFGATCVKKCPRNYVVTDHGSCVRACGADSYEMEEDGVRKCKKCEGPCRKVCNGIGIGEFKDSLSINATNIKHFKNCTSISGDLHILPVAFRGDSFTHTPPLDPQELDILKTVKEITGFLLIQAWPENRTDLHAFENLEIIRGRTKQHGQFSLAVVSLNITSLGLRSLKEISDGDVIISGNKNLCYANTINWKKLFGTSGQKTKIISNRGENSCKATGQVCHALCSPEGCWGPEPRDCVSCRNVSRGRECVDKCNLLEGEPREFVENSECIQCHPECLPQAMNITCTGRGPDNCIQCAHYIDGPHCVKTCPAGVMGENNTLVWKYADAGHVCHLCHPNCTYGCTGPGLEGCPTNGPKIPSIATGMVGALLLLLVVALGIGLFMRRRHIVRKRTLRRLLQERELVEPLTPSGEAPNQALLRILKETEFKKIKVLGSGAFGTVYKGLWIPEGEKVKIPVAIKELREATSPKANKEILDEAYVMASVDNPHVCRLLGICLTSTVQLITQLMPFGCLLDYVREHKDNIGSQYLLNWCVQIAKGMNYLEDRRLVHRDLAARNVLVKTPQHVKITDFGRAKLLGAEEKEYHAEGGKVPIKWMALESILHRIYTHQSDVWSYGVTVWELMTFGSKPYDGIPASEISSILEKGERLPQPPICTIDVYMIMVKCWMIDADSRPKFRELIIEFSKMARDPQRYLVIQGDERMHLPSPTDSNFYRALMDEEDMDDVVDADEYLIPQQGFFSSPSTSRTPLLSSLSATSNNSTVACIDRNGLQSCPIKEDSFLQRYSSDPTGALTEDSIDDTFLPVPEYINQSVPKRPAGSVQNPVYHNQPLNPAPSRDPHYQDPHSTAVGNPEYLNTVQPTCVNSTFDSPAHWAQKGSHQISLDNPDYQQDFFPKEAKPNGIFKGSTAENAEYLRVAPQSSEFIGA

[2] = test system: NIH3T3/EGFR_E746-A750_deletion; experiment: Cell proliferation assay (CellTiter-Glo), NIH3T3/EGFR_E746-A750_deletion; conditions: Mus musculus, NIH3T3, 120 h, 3T3 cell line, three to five days of compound treatment, read-out: 3T3 del IC50
Experimental: as §1

NIH3T3/EGFR_L858R = experiment: Cell proliferation assay (CellTiter-Glo), NIH3T3/EGFR_L858R; conditions: Mus musculus, NIH3T3, 120 h, 3T3 cell line, three to five days of compound treatment, read-out: 3T3 L858R IC50
Experimental: as §1

NIH3T3/EGFR L858R+T790M = experiment: Cell proliferation assay (CellTiter-Glo), NIH3T3/EGFR L858R+T790M; conditions: Mus musculus, NIH3T3, 120 h, 3T3 cell line, three to five days of compound treatment, read-out: 3T3 L858R_T790M IC50
EGFR L858R+T790M = EGFR L858R+T790M (Homo sapiens, UniProt P00533, L858R/T790M); experiment: pEGFR Y1068 ELISA assay, NIH3T3/EGFR_L858R+T790M cells; conditions: 3T3 cell line, 2 hrs compound treatment; read-out: pEGFRY1068 ELISA3T3T790M—L858R IC50;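 further: sandwich ELISA of EGFR phosphorylated at Tyr1068 in lysates of stably transfected NIH/3T3 cells, 11-point threefold dilution series run in duplicate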
[3] = target: T1, EGFR wildtype, endogenous (Homo sapiens, UniProt P00533); experiment: pEGFR Y1068 ELISA assay, A549 cells; conditions: full serum media, stimulated 10 min with EGF (40 ng/mL), read-out: pEGFRY1068 ELISAA549 IC50;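 further: sandwich ELISA of phospho-EGFR Tyr1068 in cell lysates, cells exposed to compound for 2 h before EGF stimulation, 11-point threefold dilution series run in duplicate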
T1 construct: A549 (EGFR wildtype, endogenous); host or cells: A549
T1 sequence (P00533 25-1210): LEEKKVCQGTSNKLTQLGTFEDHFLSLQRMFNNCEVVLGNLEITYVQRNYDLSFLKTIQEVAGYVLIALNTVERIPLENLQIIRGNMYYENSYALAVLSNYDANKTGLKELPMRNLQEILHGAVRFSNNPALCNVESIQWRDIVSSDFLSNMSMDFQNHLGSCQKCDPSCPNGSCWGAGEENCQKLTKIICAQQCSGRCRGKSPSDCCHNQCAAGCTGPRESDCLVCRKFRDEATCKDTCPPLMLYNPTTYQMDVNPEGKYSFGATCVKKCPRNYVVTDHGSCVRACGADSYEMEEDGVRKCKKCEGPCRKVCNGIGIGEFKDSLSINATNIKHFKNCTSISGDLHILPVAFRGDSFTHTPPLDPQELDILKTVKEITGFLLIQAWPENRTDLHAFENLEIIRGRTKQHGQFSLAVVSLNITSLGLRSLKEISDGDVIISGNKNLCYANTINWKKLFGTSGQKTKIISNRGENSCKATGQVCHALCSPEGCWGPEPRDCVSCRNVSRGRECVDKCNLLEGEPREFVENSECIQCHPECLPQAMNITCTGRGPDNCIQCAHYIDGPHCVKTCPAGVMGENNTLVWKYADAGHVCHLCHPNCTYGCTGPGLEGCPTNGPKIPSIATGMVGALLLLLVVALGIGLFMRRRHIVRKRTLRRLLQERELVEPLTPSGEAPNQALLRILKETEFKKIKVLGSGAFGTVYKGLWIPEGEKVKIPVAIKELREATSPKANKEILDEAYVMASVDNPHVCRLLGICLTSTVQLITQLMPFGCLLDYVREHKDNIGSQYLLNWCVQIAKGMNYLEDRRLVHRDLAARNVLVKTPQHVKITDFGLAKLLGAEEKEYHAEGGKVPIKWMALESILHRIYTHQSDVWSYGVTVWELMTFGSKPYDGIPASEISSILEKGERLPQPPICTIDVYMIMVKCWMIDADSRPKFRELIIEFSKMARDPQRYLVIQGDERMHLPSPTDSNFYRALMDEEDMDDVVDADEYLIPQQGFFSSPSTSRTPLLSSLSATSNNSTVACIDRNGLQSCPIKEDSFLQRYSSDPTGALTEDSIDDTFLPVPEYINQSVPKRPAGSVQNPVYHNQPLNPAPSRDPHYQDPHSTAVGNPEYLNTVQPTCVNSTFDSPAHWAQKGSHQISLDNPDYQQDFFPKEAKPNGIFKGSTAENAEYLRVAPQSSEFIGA

EGFR E746-A750 deletion = EGFR E746-A750 deletion (Homo sapiens, UniProt P00533, DEL746-750); experiment: pEGFR Y1068 ELISA assay, NIH3T3/EGFR_E746-A750 deletion cells; conditions: 3T3 Del cells, 2 hrs compound treatment; read-out: ELISA7E 3T3 Del IC50;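 further: sandwich ELISA on cell lysates detecting phospho-EGFR at Tyr1068, compounds run as 11-point threefold dilution series in duplicate, IC50 from inhibition of this phosphorylation signal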
EGFR E746-A750 deletion, sequence (P00533 with tags, fused parts or gaps DEL746-750): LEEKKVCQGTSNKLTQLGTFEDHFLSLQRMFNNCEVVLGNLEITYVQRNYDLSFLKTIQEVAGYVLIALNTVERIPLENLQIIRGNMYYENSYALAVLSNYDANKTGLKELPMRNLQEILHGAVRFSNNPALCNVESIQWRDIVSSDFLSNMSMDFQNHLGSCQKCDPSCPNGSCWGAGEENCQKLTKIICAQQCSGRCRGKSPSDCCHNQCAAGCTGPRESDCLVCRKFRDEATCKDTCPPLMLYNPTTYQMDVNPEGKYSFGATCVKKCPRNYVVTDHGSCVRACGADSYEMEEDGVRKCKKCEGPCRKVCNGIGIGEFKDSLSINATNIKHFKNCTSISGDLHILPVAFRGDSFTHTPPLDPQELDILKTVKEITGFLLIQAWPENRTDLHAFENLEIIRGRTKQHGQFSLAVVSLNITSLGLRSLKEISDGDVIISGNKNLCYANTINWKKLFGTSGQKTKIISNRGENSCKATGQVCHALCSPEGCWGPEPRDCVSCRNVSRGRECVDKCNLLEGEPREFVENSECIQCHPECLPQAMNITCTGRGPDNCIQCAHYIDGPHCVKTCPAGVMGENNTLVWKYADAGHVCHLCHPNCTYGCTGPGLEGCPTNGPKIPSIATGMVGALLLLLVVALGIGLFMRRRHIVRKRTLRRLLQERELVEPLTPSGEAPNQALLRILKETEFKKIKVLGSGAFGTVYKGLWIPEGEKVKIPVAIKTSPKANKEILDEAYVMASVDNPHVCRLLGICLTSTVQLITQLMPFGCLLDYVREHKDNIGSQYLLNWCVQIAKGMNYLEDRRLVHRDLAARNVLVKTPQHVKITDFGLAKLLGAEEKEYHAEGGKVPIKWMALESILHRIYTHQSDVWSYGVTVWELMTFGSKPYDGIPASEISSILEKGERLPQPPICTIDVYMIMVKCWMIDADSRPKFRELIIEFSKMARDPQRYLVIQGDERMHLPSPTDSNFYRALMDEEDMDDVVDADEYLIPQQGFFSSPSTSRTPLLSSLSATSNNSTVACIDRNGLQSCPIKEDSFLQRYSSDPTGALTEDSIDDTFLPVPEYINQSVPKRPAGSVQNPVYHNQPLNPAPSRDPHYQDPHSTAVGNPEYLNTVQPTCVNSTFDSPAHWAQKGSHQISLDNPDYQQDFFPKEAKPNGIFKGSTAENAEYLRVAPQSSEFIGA

EGFR Del (PC9) = target: T2, EGFR Del (PC9) (Homo sapiens, UniProt P00533, DEL746-750); experiment: EGFR ELISA, PC9 Del cells; conditions: read-out: EGFR_ELISA9E PC9 Del IC50;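 further: cellular EGFR autophosphorylation at Tyr1068 quantified by sandwich ELISA of cell lysates after 2 h compound exposure at 37 °C, 11-point threefold dilution series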
T2 construct: endogenous in cells; host or cells: PC-9
T2 sequence (P00533 with tags, fused parts or gaps DEL746-750): as above

SMILES | IC50 [1] [nM] | IC50 (EGFR L858R) [nM] | IC50 [2] [nM] | IC50 (NIH3T3/EGFR_L858R) [nM] | IC50 (NIH3T3/EGFR L858R+T790M) [nM] | IC50 (EGFR L858R+T790M) [nM] | IC50 [3] [nM] | IC50 (EGFR E746-A750 deletion) [nM] | IC50 (EGFR Del (PC9)) [nM]
C=CC(=O)N1C[C@H](COc2nc(Nc3cnn(C)c3)nc3[nH]cc(Cl)c23)[C@@H]([C@H](C)O)C1 (single isomer, unassigned) [Example 10] | 10 to 100 | 1810 | 100 to 1000 | > 1000 | > 1000 | 80 | > 10000 | 1020 | –
C=CC(=O)Nc1cccc(Oc2nc(Nc3cnn(CCN(C)C)c3)nc3[nH]ccc23)c1 [Example 2, N-(3-{[2-({1-[2-(dimethylamino)ethyl]-1H-pyrazol-4-yl}amino)-7H-pyrrolo[2,3-d]pyrimidin-4-yl]oxy}phenyl)prop-2-enamide] | < 10 | 141 | < 10 | 100 to 1000 | < 10 | 11 | 2920 | 29 | –
C=CC(=O)Nc1cccc(Oc2nc(Nc3cnn(C)c3)nc3[nH]cc(-c4cccnc4)c23)c1 [Example 8, N-[3-({2-[(1-methyl-1H-pyrazol-4-yl)amino]-5-(pyridin-3-yl)-7H-pyrrolo[2,3-d]pyrimidin-4-yl}oxy)phenyl]prop-2-enamide] | – | 25 | – | – | – | 17 | 1370 | 8 | 3
C=CC(=O)N1C[C@H](COc2nc(Nc3cnn(C)c3)nc3[nH]cc(Cl)c23)[C@@H](OC)C1 [Example 9, 1-{(3R,4R)-3-[5-chloro-2-(1-methyl-1H-pyrazol-4-ylamino)-7H-pyrrolo[2,3-d]pyrimidin-4-yloxymethyl]-4-methoxy-pyrrolidin-1-yl}propenone trifluoroacetate] | < 10 | – | 10 to 100 | 100 to 1000 | 100 to 1000 | – | – | – | –
C=CC(=O)Nc1cccc(Oc2nc(Nc3ccn(C)n3)nc3[nH]cc(Cl)c23)c1 [Example 21] | < 10 | 202 | 10 to 100 | > 1000 | 10 to 100 | 13 | 7850 | 33 | –
C=CC(=O)Nc1cccc(Oc2nc(Nc3cnn(C(C)C)c3)nc3[nH]ccc23)c1 [Example 31] | 10 to 100 | 105 | 10 to 100 | > 1000 | 10 to 100 | 11 | 947 | – | –
C=CC(=O)Nc1cccc(Oc2nc(Nc3cnn(C4CCN(C)C4)c3)nc3[nH]ccc23)c1 (centres unmarked) [Example 34] | < 10 | 170 | < 10 | 100 to 1000 | 10 to 100 | 14 | 4030 | – | –
C=CC(=O)Nc1cccc(Oc2nc(Nc3cnn(C)c3)nc3[nH]ccc23)c1 [Example 35] | < 10 | – | < 10 | 100 to 1000 | < 10 | – | – | – | –
C=CC(=O)N1CC[C@@H](COc2nc(Nc3cnn(C)c3)nc3[nH]cc(Cl)c23)C1 [Example 64] | < 10 | – | < 10 | 10 to 100 | 10 to 100 | – | – | – | –
C=CC(=O)N1C[C@H](COc2nc(Nc3cnn(CC)n3)nc3[nH]cc(Cl)c23)[C@@H](OC)C1 [Example 67] | – | 49 | – | – | – | 8 | > 10000 | 172 | 141
C=CC(=O)N[C@H]1C[C@@](C)(Oc2nc(Nc3cnn(C)c3)nc3[nH]cc(Cl)c23)C1 [Example 69] | – | 287 | – | – | – | 19 | > 9370 | 117 | 465
C=CC(=O)N1C[C@H](COc2nc(Nc3cnn([C@@H]4CCOC4)c3)nc3[nH]cc(Cl)c23)[C@@H](OC)C1 [Example 72] | 10 to 100 | – | 100 to 1000 | 100 to 1000 | 100 to 1000 | – | – | – | –
C=CC(=O)N1C[C@H](COC)[C@@H](COc2nc(Nc3cnn(C)c3)nc3[nH]cc(Cl)c23)C1 [Example 74] | 10 to 100 | – | 10 to 100 | 100 to 1000 | 100 to 1000 | – | – | – | –
C=CC(=O)N(C)[C@H]1C[C@H](Oc2nc(Nc3cnn(CC(O)CN(C)C)c3)nc3[nH]cc(Cl)c23)C1 (some centres unmarked) [Example 75] | 10 to 100 | 3550 | 100 to 1000 | > 1000 | 100 to 1000 | 69 | > 10000 | – | –
C=CC(=O)N1CCOC2(CCN(c3nc(Nc4cnn(C)c4)nc4[nH]cc(Cl)c34)C2)C1 (centres unmarked) [Example 76] | 100 to 1000 | 855 | 100 to 1000 | > 1000 | 100 to 1000 | 26 | > 10000 | – | –
C=CC(=O)N1CC[C@@H](Nc2nc(Nc3cnn(C)c3)nc3[nH]cc(C#N)c23)C1 [Example 78] | – | – | – | – | – | – | > 10000 | – | 3220
C=CC(=O)N1C[C@H](COc2nc(Nc3cnn([C@@H]4CCOC4)c3)nc3[nH]cc(Cl)c23)[C@@H](OC)C1 [Example 103] | – | 332 | – | – | – | 15 | > 10000 | 512 | –
C=CC(=O)Nc1cccc(Oc2nc(Nc3cc(OCCN(C)C)nn3C)nc3[nH]ccc23)c1F [Example 104] | – | 123 | – | – | – | 25 | > 10000 | 110 | –
C=CC(=O)N1CC(Oc2nc(Nc3cnn(C)c3)nc3[nH]cc(Cl)c23)C1 [Example 105] | 100 to 1000 | 490 | 100 to 1000 | 100 to 1000 | 100 to 1000 | 37 | > 10000 | – | –
C=CC(=O)Nc1cccc(Oc2nc(Nc3cnn([C@H]4CCN(C)C4)c3)nc3[nH]ccc23)c1F [Example 106] | – | 15 | – | – | – | 8 | > 10000 | 9 | –
C=CC(=O)N1C[C@H](COc2nc(Nc3cnn(C)c3)nc3[nH]cc(-c4ccccn4)c23)[C@@H](OC)C1 [Example 117] | – | – | – | – | – | – | > 10000 | – | 838
